Measured values from patent publication US12077555B2, “STAT degraders and uses thereof” (Kymera Therapeutics, Inc., priority 2019, dated 2024).

target: STAT3 (Homo sapiens, UniProt P40763); test: STAT3 HiBiT degradation assay in transfected A549 cells; type: cell-based; design: expressed in transfected cells; host or cells: A549; conditions: A549, 24 h; read-out: STAT3 HiBiT A549 degradation 24 h: Average external-Abs DC50
Procedure, shortened: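 Transfected A549 cells (~2000/well) plated 24 h, then treated 24 h at 37 °C, 5% CO2 with a 3-fold, 10-point compound dilution. HiBiT lytic luminescence read after 10 min at room temperature; remaining STAT3 normalized to negative and positive controls, four-parameter fit. DC50 binned A <0.01, B 0.01–0.1, C 0.1–1.0, D >1.0 µM.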

Sequence of STAT3 (P40763 whole entry): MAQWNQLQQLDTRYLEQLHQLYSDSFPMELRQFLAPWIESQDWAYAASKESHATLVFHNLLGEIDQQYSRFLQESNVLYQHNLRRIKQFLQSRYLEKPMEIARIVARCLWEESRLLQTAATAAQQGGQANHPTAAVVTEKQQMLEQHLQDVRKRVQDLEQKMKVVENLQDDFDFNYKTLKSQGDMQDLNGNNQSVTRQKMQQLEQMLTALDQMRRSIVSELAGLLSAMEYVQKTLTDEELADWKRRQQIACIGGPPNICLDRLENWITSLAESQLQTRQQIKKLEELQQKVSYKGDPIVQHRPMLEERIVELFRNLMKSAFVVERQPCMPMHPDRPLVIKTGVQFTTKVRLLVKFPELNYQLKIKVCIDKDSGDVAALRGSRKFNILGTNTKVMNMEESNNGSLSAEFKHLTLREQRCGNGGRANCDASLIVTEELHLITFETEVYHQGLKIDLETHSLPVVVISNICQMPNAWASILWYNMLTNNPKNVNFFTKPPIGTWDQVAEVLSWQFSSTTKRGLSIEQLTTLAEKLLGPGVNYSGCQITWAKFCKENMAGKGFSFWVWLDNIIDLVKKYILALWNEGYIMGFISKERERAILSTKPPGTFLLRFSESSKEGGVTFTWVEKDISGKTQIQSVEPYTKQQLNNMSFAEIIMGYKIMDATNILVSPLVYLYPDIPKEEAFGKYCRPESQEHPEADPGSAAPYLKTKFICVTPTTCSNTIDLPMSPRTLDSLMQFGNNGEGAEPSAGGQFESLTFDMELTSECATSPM

SMILES	DC50 [µM]
Cc1ncsc1-c1ccc([C@H](C)NC(=O)[C@@H]2C[C@@H](O)CN2C(=O)[C@@H](NC(=O)CCCCCc2cccc(NC(=O)[C@H](CCC(N)=O)NC(=O)[C@@H]3Cc4cccc5c4N3C(=O)[C@@H](NC(=O)c3cc4cc(C(=O)P(=O)(O)O)ccc4[nH]3)CC5)c2Cl)C(C)(C)C)cc1 [Compound I-249, 2-[[(2S,11S)-2-[[(1S)-3-carbamoyl-1-[[2-chloro-3-(5-[[(2S)-1-[(2S,4R)-4-hydroxy-2-[[(1S)-1-[4-(4-methyl-1,3-thiazol-5-yl)phenyl]ethyl]carbamoyl]pyrrolidin-1-yl]-3,3-dimethyl-1-oxobutan-2-yl]carbamoyl]pentyl)phenyl]carbamoyl]propyl]carbamoyl]-12-oxo-1-azatricyclo[6.4.1.0^[4,13]]trideca-4(13),5,7-trien-11-yl]carbamoyl]-1H-indole-5-carbonylphosphonic acid]	0.01 to 0.1
Cc1ncsc1-c1ccc([C@H](C)NC(=O)[C@@H]2C[C@@H](O)CN2C(=O)[C@@H](NC(=O)CCCCCc2cccc(NC(=O)[C@H](CCC(N)=O)NC(=O)[C@@H]3Cc4cccc5c4N3C(=O)[C@@H](NC(=O)c3cc4cc(C(=O)P(=O)(O)O)ccc4[nH]3)CC5)c2F)C(C)(C)C)cc1 [Compound I-250, 2-[[(2S,11S)-2-[[(1S)-3-carbamoyl-1-[[2-fluoro-3-(5-[[(2S)-1-[(2S,4R)-4-hydroxy-2-[[(1S)-1-[4-(4-methyl-1,3-thiazol-5-yl)phenyl]ethyl]carbamoyl]pyrrolidin-1-yl]-3,3-dimethyl-1-oxobutan-2-yl]carbamoyl]pentyl)phenyl]carbamoyl]propyl]carbamoyl]-12-oxo-1-azatricyclo[6.4.1.0^[4,13]]trideca-4(13),5,7-trien-11-yl]carbamoyl]-1H-indole-5-carbonylphosphonic acid]	0.01 to 0.1
Cc1ccc(OC[C@H](CCC(N)=O)NC(=O)[C@@H]2Cc3cccc4c3N2C(=O)[C@@H](NC(=O)c2cc3cc(C(=O)P(=O)(O)O)ccc3[nH]2)CC4)c(F)c1CCCCCC(=O)N[C@H](C(=O)N1C[C@H](O)C[C@H]1C(=O)N[C@@H](C)c1ccc(-c2scnc2C)cc1)C(C)(C)C [Compound I-251]	< 0.01
Cc1ncsc1-c1ccc([C@H](C)NC(=O)[C@@H]2C[C@@H](O)CN2C(=O)[C@@H](NC(=O)CCCCCc2c(F)ccc(OC[C@H](CCC(N)=O)NC(=O)[C@@H]3Cc4cccc5c4N3C(=O)[C@@H](NC(=O)c3cc4cc(C(=O)P(=O)(O)O)ccc4[nH]3)CC5)c2F)C(C)(C)C)cc1 [Compound I-252]	< 0.01
Cc1ncsc1-c1ccc([C@H](C)NC(=O)[C@@H]2C[C@@H](O)CN2C(=O)[C@@H](NC(=O)CCCc2cccc(OC[C@H](CCC(N)=O)NC(=O)[C@@H]3Cc4cccc5c4N3C(=O)[C@@H](NC(=O)c3cc4cc(C(=O)P(=O)(O)O)ccc4[nH]3)CC5)c2Cl)C(C)(C)C)cc1 [Compound I-253]	< 0.01
Cc1ncsc1-c1ccc([C@H](C)NC(=O)[C@@H]2C[C@@H](O)CC2C(=O)[C@@H](NC(=O)OCCCCc2cccc(N(C)CC(CCC(N)=O)NC(=O)[C@@H]3Cc4cccc5c4N3C(=O)[C@@H](NC(=O)c3cc4cc(C(=O)P(=O)(O)O)ccc4[nH]3)CC5)c2F)C(C)(C)C)cc1 (some centres unmarked) [Compound I-254]	0.1 to 1
Cc1ncsc1-c1ccc([C@H](C)NC(=O)[C@@H]2C[C@@H](O)CN2C(=O)[C@@H](NC(=O)Cc2cccc(OC[C@H](CCC(N)=O)NC(=O)[C@@H]3Cc4cccc5c4N3C(=O)[C@@H](NC(=O)c3cc4cc(C(=O)P(=O)(O)O)ccc4[nH]3)CC5)c2)C(C)(C)C)cc1 [Compound I-256, 2-[[(2S,11S)-2-[[(2S)-4-carbamoyl-1-[3-([[(2S)-1-[(2S,4R)-4-hydroxy-2-[[(1S)-1-[4-(4-methyl-1,3-thiazol-5-yl)phenyl]ethyl]carbamoyl]pyrrolidin-1-yl]-3,3-dimethyl-1-oxobutan-2-yl]carbamoyl]methyl)phenoxy]butan-2-yl]carbamoyl]-12-oxo-1-azatricyclo[6.4.1.0^[4,13]]trideca-4(13),5,7-trien-11-yl]carbamoyl]-1H-indole-5-carbonylphosphonic acid]	> 1
Cc1ncsc1-c1ccc([C@H](C)NC(=O)[C@@H]2C[C@@H](O)CN2C(=O)[C@@H](NC(=O)CCCCCc2cc(Cl)cc(NC(=O)[C@H](CCC(N)=O)NC(=O)[C@@H]3Cc4cccc5c4N3C(=O)[C@@H](NC(=O)c3cc4cc(C(=O)P(=O)(O)O)ccc4[nH]3)CC5)c2)C(C)(C)C)cc1 [Compound I-257, 2-[[(2S,11S)-2-[[(1S)-3-carbamoyl-1-[[3-chloro-5-(5[[(2S)-1-[(2S,4R)-4-hydroxy-2-[[(1S)-1-[4-(4-methyl-1,3-thiazol-5-yl)phenyl]ethyl]carbamoyl]pyrrolidin-1-yl]-3,3-dimethyl-1-oxobutan-2-yl]carbamoyl]pentyl)phenyl]carbamoyl]propyl]carbamoyl]-12-oxo-1-azatricyclo[6.4.1.0^[4,13]]trideca-4(13),5,7-trien-11-yl]carbamoyl]-1H-indole-5-carbonylphosphonic acid]	0.01 to 0.1
Cc1cc(CCCCCC(=O)N[C@H](C(=O)N2C[C@H](O)C[C@H]2C(=O)N[C@@H](C)c2ccc(-c3scnc3C)cc2)C(C)(C)C)cc(NC(=O)[C@H](CCC(N)=O)NC(=O)[C@@H]2Cc3cccc4c3N2C(=O)[C@@H](NC(=O)c2cc3cc(C(=O)P(=O)(O)O)ccc3[nH]2)CC4)c1 [Compound I-258, 2-[[(2S,11S)-2-[[(1S)-3-carbamoyl-1-[[3-(5-[[(2S)-1-[(2S,4R)-4-hydroxy-2-[[(1S)-1-[4-(4-methyl-1,3-thiazol-5-yl)phenyl]ethyl]carbamoyl]pyrrolidin-1-yl]-3,3-dimethyl-1-oxobutan-2-yl]carbamoyl]pentyl)-5-methylphenyl]carbamoyl]propyl]carbamoyl]-12-oxo-1-azatricyclo[6.4.1.0^[4,13]]trideca-4(13),5,7-trien-11-yl]carbamoyl]-1H-indole-5-carbonylphosphonic acid]	< 0.01
Cc1ncsc1-c1ccc([C@H](C)NC(=O)[C@@H]2C[C@@H](O)CN2C(=O)[C@@H](NC(=O)CCCCCc2cccc(NC(=O)[C@H](CCC(N)=O)NC(=O)[C@@H]3Cc4cccc5c4N3C(=O)[C@@H](NC(=O)c3cc4cc(C(=O)P(=O)(O)O)ccc4[nH]3)CC5)c2C)C(C)(C)C)cc1 [Compound I-259]	0.1 to 1
Cc1ncsc1-c1ccc([C@H](C)NC(=O)[C@@H]2C[C@@H](O)CN2C(=O)[C@@H](NC(=O)CCc2cccc(OC[C@H](CCC(N)=O)NC(=O)[C@@H]3Cc4cccc5c4N3C[C@@H](CC(=O)C3Cc4cc(C(=O)P(=O)(O)O)ccc4N3)CC5)c2)C(C)(C)C)cc1 (stereo partly drawn) [Compound I-260, diammonium 2-[[(2S,11S)-2-[[(2S)-4-carbamoyl-1-[3-(2-[[(2S)-1-[(2S,4R)-4-hydroxy-2-[[(1S)-1-[4-(4-methyl-1,3-thiazol-5-yl)phenyl]ethyl]carbamoyl]pyrrolidin-1-yl]-3,3-dimethyl-1-oxobutan-2-yl]carbamoyl]ethyl)phenoxy]butan-2-yl]carbamoyl]-12-oxo-1-azatricyclo[6.4.1.0^[4,13]]trideca-4(13),5,7-trien-11-yl]carbamoyl]-1H-indole-5-carbonylphosphonate]	> 1
CC(=O)N1CC[C@H]2CC[C@@H](C(=O)N[C@@H](CCC(N)=O)COc3cccc(CCCCC(=O)N[C@H](C(=O)N4C[C@H](O)C[C@H]4C(=O)N[C@@H](C)c4ccc(-c5scnc5C)cc4)C(C)(C)C)c3F)N2C(=O)[C@@H](NC(=O)c2cc3cc(C(=O)P(=O)(O)O)ccc3[nH]2)C1 [Compound I-263, 2-[[(5S,8S,10aR)-3-acetyl-8-[[(2S)-4-carbamoyl-1-[2-fluoro-3-(4-[[(2S)-1-[(2S,4R)-4-hydroxy-2-[[(1S)-1-[4-(4-methyl-1,3-thiazol-5-yl)phenyl]ethyl]carbamoyl]pyrrolidin-1-yl]-3,3-dimethyl-1-oxobutan-2-yl]carbamoyl]butyl)phenoxy]butan-2-yl]carbamoyl]-6-oxo-octahydropyrrolo[1,2-a][1,5]diazocin-5-yl]carbamoyl]-1H-indole-5-carbonylphosphonic acid]	< 0.01
Cc1ncsc1-c1ccc([C@H](C)NC(=O)[C@@H]2C[C@@H](O)CN2C(=O)[C@@H](NC(=O)CCCCCc2cc(F)cc(NC(=O)[C@H](CCC(N)=O)NC(=O)[C@@H]3Cc4cccc5c4N3C(=O)[C@@H](NC(=O)c3cc4cc(C(=O)P(=O)(O)O)ccc4[nH]3)CC5)c2)C(C)(C)C)cc1 [Compound I-264, 63 2-[[(2S,11S)-2-[[(1S)-3-carbamoyl-1-[[3-fluoro-5-(5-[[(2S)-1-[(2S,4R)-4-hydroxy-2-[[(1S)-1-[4-(4-methyl-1,3-thiazol-5-yl)phenyl]ethyl]carbamoyl]pyrrolidin-1-yl]-3,3-dimethyl-1-1-oxobutan-2-yl]carbamoyl]pentyl)phenyl]carbamoyl]propyl]carbamoyl]-12-oxo-1-azatricyclo[6.4.1.0^[4,13]]trideca-4(13),5,7-trien-11-yl]carbamoyl]-1H-indole-5-carbonylphosphonic acid 7]	0.01 to 0.1

same assay, conditions: read-out: STAT3 HiBiT A549 degradation 24 h: Average external-Abs DC50; A549, 24 h

SMILES	DC50 [µM]
Cn1c(=O)n(C(CCC(N)=O)C(=O)O)c2ccc(C[C@H]3CC[C@@H](CC(=O)N4CC[C@H]5CC[C@@H](C(=O)N[C@@H](CCC(N)=O)C(=O)NC(c6ccccc6)c6ccccc6)N5C(=O)[C@@H](NC(=O)c5cc6cc(C(=O)P(=O)(O)O)ccc6[nH]5)C4)CC3)cc21 (stereo partly drawn) [Compound I-255, 4-carbamoyl-2-(3-methyl-2-oxo-5-[[(1s,4s)-4-[2-[(5S,8S,10aR)-8-[[(1S)-3-carbamoyl-1-(diphenylmethylcarbamoyl)propyl]carbamoyl]-6-oxo-5-[5-(phosphonocarbonyl)-1H-indole-2-amido]-octahydropyrrolo[1,2-a][1,5]diazocin-3-yl]-2-oxoethyl]cyclohexyl]methyl]-1,3-benzodiazol-1-yl)butanoic acid]	> 1
